This passage reports IC50 results from patent publication US7807841B2, “Spiro-containing compounds and compositions as modulators of steroid hormone nuclear receptors” (IRM LLC, priority 2005, dated 2010).

SMILES strings stand for the structures. Bounds are passed on as bounds.

For the experiment, the target named is T1, Mineralocorticoid Receptor (MR) (Homo sapiens, UniProt P08235).
T1 construct: expressed in transfected cells; host or cells: 293T cells (ATCC)
T1 sequence (P08235 672-984): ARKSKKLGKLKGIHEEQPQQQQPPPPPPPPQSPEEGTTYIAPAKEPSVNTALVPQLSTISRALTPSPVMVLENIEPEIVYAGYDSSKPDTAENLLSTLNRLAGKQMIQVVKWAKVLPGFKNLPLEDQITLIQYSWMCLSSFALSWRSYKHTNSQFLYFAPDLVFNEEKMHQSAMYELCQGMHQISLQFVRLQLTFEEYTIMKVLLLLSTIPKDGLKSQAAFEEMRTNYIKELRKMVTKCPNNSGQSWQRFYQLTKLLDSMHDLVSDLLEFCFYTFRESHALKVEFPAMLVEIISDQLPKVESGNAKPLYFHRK
Briefly: Functional assay of mineralocorticoid receptor antagonism (Gal4-MR mammalian two hybrid luciferase reporter, 293T cells). The class given is cell-based. As to conditions: antagonism of aldosterone (0.4 nM)-induced MR activity. The procedure:
The MR antagonist activity of the compounds is determined in a mammalian two hybrid reporter system. The N-terminus of MR (MR-NT, sequence coding amino acid 1-597) is fused to the activation domain of the VP16 gene. The ligand binding domain of MR (MR-LBD, sequence encoding amino acid 672-984) is fused to the DNA binding domain of the yeast Gal4 gene. The MR gene is cloned from a human kidney cDNA library with PCR.
The assay is performed in 384 well plates. Briefly, 293T cells (ATCC) are transfected with expression vectors for Gal-4-MR-LBD and VP16-MR NT, and a luciferase reporter vector containing Gal4 binding sequence (pG5-Luc). Cells are plated in 384 well plates immediately after transfection (approximately 3×10^4 cells/well in 50 μl medium). The medium is supplemented with 3% charcoal-dextran treated fetal bovine serum (Hyclone). Twenty four hours after transfection, compounds prepared in DMSO are transferred to the cells. The cells are then stimulated with 0.4 nM final concentration of aldosterone (Acros) and incubated at 37° C. for another 24 hours before the luciferase activity is assayed with 20 μl of Bright-Glo (Promega) using a luminometer (CLIPR). The expression of luciferase is used as an indicator of aldosterone-induced MR trans-activation. Each compound is tested in duplicates with 12-concentration titration. IC50 values (defined as the concentration of test compound required to antagonize 50% of aldosterone-induced MR activity) are determined from the dose-response curve.
`COc1ccc(C2=NCC3(O2)c2ccccc2C=Cc2ccccc23)cc1` [OXS-3] gave an IC50 of 0.1 to 1 µM.

`C1=Cc2ccccc2C2(CN=C(c3ccccc3)O2)c2ccccc21` [OXS-2] came in with an IC50 of 0.1 to 1 µM.

Take `O=C1CCC2(c3ccc(Br)cc3)OC3(CN12)c1ccccc1C=Cc1ccccc13` (centres unmarked) [FRS-7]: the IC50 is < 0.1 µM.

In turn, `O=C1CCC2(c3ccn(S(=O)(=O)c4ccccc4)c3)OC3(CN12)c1ccccc1C=Cc1ccccc13` (centres unmarked) [FRS-12] showed an IC50 of 0.1 to 1 µM.

`CC1(C)OC2(CN1C(=O)c1ccccc1)c1ccccc1C=Cc1ccccc12` [SOXS-5] returned an IC50 of 0.1 to 1 µM.
